Assay results taken from US20110160249A1, “5-LIPOXYGENASE-ACTIVATING PROTEIN INHIBITOR” (priority 2008, published 2011).
Converted amounts (≈) assume the structure as drawn. One block for each compound: values may come before it.

What was measured:
[1] = tested on: allergen-induced early and late phases of lung-volume decline; conditions: clinical trials; cited from earlier work
chronic asthma = conditions: clinical studies; cited from earlier work
[2] = tested on: whole blood ionophore-stimulated leukotriene LTB4; test: Phase I study, whole blood ionophore-stimulated LTB4; assay type: in vivo, human
Text: Study Design: Single center, double-blind, randomized, placebo-controlled, single ascending dose followed by multiple ascending dose study.
Sample Size: (1) Single Dose Phase: eight (8) subjects (6 active, 2 placebo) per dose level; up to 5 dose levels are planned (a total of 40 subjects if all 5 dose levels are completed); and (2) Multiple Dose Phase: eight (8) subjects (6 active, 2 placebo) per dose level; up to 4 dose levels are planned (a total of 32 subjects if all 4 dose levels are completed).
Formulations: Compound 2 was supplied as an oral powder for reconstitution. Placebo solution matched. […] The placebo differed only in the absence of the active.
The following dosing cohorts were used:
Routes of Administration: All doses were administered orally with approximately 100 mL of water rinse. Subjects were fasted for at least 8 hours prior to dosing and for 2 hours after dosing. For BID dosing in the Multiple Dose Phase, when applicable, subjects were fasted for at least 2 hours prior to the second daily dose.
Plasma concentrations of Compound 1 were determined using a validated LC/MS method. Whole blood ionophore-stimulated leukotriene LTB4 and urinary LTE4 production were assayed by ELISA and mass spectrometry, respectively.
Analysis of Samples: Concentrations of Compound 1 was determined in plasma samples collected from subjects. Similarly, concentrations of LTB4 in plasma and urinary LTE4 were determined in blood and urine samples collected.

[3] = Liquid formulations (oral solutions/suspensions); assay type: physicochemical; conditions: certain solvent systems, below pH values of about 9-10
Method: Values of pH reported were estimated based on pH indicating strips. […] Accordingly, provided in certain embodiments herein were formulations having a pH above about 9, above about 10 or of about 10. In certain embodiments, the formulation was buffered at a pH of about 10. All formulations prepared were sonicated for about 10 minutes.

[4] = rat, in vivo, po
[5] = Gravimetric Vapour Sorption (GVS); assay type: physicochemical; conditions: after the full sorption/desorption cycle
[6] = Thermodynamic Aqueous Solubility by HPLC; assay type: physicochemical; conditions: water, 25° C.
Method: Aqueous solubility was determined by suspending sufficient compound in water to give a maximum final concentration of ≧10 mg·ml^−1 of the parent free-form of the compound. The suspension was equilibrated at 25° C. for 24 hours then the pH was measured. The suspension was then filtered through a glass fibre C filter into a 96 well plate. The filtrate was then diluted by a factor of 101. Quantitation was by HPLC with reference to a standard solution of approximately 0.1 mg·ml^−1 in DMSO. Different volumes of the standard, diluted and undiluted sample solutions were injected. The solubility was calculated using the peak areas determined by integration of the peak found at the same retention time as the principal peak in the standard injection.
Analysis was performed on an Agilent HP1100 series system equipped with a diode array detector and using ChemStation software vB.02.01-SR1.

Compound: CC(C)c1ccc2c(c1)c(SC(C)(C)C)c(CC(C)(C)C(=O)O)n2Cc1ccc(Cl)cc1 [MK-866]
efficacy in allergen-challenge studies (allergen-induced early and late phases of lung-volume decline) [1]: show efficacy

Compound: CC(c1cc2ccccc2s1)N(O)C(N)=O (centres unmarked) [Zileuton, zileuton]
efficacy in allergen-challenge studies (allergen-induced early and late phases of lung-volume decline) [1]: not effective | efficacy in chronic asthma (chronic asthma): exhibits clinical efficacy

EC50 ([2]; Homo sapiens, dose range studied, read-out: EC50, plasma concentration vs inhibition of ionophore-stimulated LTB4 production): ~0.07 µg/mL (≈ 0.11 µM) | EC90 ([2]; Homo sapiens, dose range studied, read-out: EC90, plasma concentration vs inhibition of ionophore-stimulated LTB4 production): ~0.32 µg/mL (≈ 0.502 µM) | solubility in words [3]: sparingly soluble
Compound: CCOc1ccc(-c2ccc(Cn3c(CC(C)(C)C(=O)O)c(SC(C)(C)C)c4cc(OCc5ccc(C)cn5)ccc43)cc2)cn1 [Compound 1, 3-[3-(tert-butylsulfanyl)-1-[4-(6-ethoxy-pyridin-3-yl)benzyl]-5-(5-methyl-pyridin-2-yl-methoxy)-1H-indol-2-yl]-2,2-dimethylpropanoic acid]
plasma concentration at which complete inhibition of ionophore-stimulated LTB4 production was reached ([2]; in vivo): 1000 to 1500 ng/mL

plasma exposures [4]: equivalent plasma exposures | XRPD pattern after the GVS experiment [5]: No changes were observed | Appearance of mixture after equilibration for 24 hours [6]: Suspension | Concentration of filtrate (as mg/mL of free base) ([6]; 24 hours, listed as Compound 2 Phase A): >10 mg/mL
Compound: CCOc1ccc(-c2ccc(Cn3c(CC(C)(C)C(=O)[O-])c(SC(C)(C)C)c4cc(OCc5ccc(C)cn5)ccc43)cc2)cn1.[Na+] [Amorphous Phase A]

Compound: O=C(O)[C@@H](c1ccc(OCc2ccc3ccccc3n2)cc1)C1CCCC1 [BAYX-1005]
efficacy in allergen-challenge studies (allergen-induced early and late phases of lung-volume decline) [1]: show efficacy

Compound: CC(C)(C)Sc1c(CC(C)(C)C(=O)O)n(Cc2ccc(Cl)cc2)c2ccc(OCc3ccc4ccccc4n3)cc12 [MK-0591]
efficacy in allergen-challenge studies (allergen-induced early and late phases of lung-volume decline) [1]: show efficacy | efficacy in chronic asthma (chronic asthma): shows efficacy
